# Results from patent US20220064238A1, “Methods And Compositions For Modifying Transcription Factor Activity by Targeting The Human Mediator Complex Using Cell Penetrating Memetic Peptides And Methods of Treating Cancer Using The Same” (The Regents of the University of Colorado, a body corporate, priority 2020, published 2022).
# Bridge positions count the residues as written; N and C are the ends. Square brackets hold non-standard residues; d marks the D form. Peptide text beside a SMILES is read from it. PEG6 = NCCOCCOCCOCCOCCOCCOCCC(=O)O; R8 = C=CCCCCCC[C@@](C)(N)C(=O)O; S5 = C=CCCC[C@](C)(N)C(=O)O
# Tests used:
# SJSA cells = assay: SJSA cell death after Nutlin treatment (CellTiter-Glo); type: cell-based; details: 24-hour Nutlin 10 μM
# Protocol: Experimental time frame for RNA-Seq experiments: In a series of experiments in SJSA cells, we initially tested whether the bivalent peptide could cause a phenotypic change. […] We next determined that a 6-hour Nutlin treatment time was the shortest that would still trigger significant SJSA cell death within 24-48 hours. However, we obtained similar results with 6-hour (or 12-hour) Nutlin treatment times (±bivalent peptide). We then tested the prospect of RNA-Seq experiments, in hopes that gene expression changes and shorter time frames would allow an assessment of bivalent peptide effects. Here, we used HCT116 cells, which show strong transcriptional response to Nutlin (Allen et al., 2014). For RNA-Seq experiments, we needed a time frame long enough to allow accumulation of p53 target gene mRNAs but short enough to enable maximum activity of the bivalent peptide (e.g. prior to its secretion, export, and/or degradation). Using RT-qPCR assays, we confirmed that a 3-hour Nutlin treatment was a minimum amount of time to reliably detect induction of p53 target genes. […] RNA-Seq data have been uploaded on GEO: GSE135870.
# [1] = target: T1, p53-activated transcription (Gal4-p53AD, Mediator) (Homo sapiens, UniProt Q9NVC6); assay: In vitro transcription on naked DNA templates, p53-activated (+Gal4-p53AD); type: biochemical; details: 500 nM peptide
# T1 construct: made in house
# Text: To screen peptides for the ability to selectively block p53-dependent transcription, we required an assay that enabled p53-dependent activation but that could also support basal (i.e. activator-independent) transcription. The present inventors had previously established an in vitro transcription assay (using highly purified human factors (FIG. 1A). A key feature of this assay was that both activated and basal transcription could be reconstituted on naked DNA templates (i.e. DNA templates not assembled into chromatin). To adapt this assay for purposes of measuring basal vs. p53-activated transcription, we generated templates with Gal4 DNA binding sites upstream of the adenovirus major late promoter sequence (FIG. 5A, B). Upon titration of a Gal4 DNA Binding Domain (DBD)-p53 Activation Domain (AD; residues 1-70) fusion protein into this system, we observed pol II-dependent transcription that was dependent on p53AD and Mediator (FIG. 5C). Reactions containing Gal4-p53AD generally produced about two- to four-fold more transcripts compared to reactions with no activator (FIG. 5C). Because experiments without Gal4-p53AD produced a low level of “basal” transcription that could be quantitated, this system allowed assessment of both p53-activated and basal transcription. […]
# VP16-Mediator binding = target: T2, VP16-Mediator binding (Homo sapiens, UniProt Q71SY5+Q9NVC6); assay: In vitro binding assay, VP16AD-Mediator; details: bivalent peptide 5 μM
# T2 construct: endogenous in cells
compound,measurement,setting,value
CC[C@H](C)[C@H](NC(=O)[C@H](CC(=O)O)NC(=O)[C@H](CC(=O)O)NC(=O)[C@@H]1CCCN1C(=O)[C@H](CO)NC(=O)[C@H](CC(C)C)NC(=O)CCOCCOCCOCCOCCOCCOCCNC(=O)[C@H](CCCNC(=N)N)NC(=O)[C@H](CCCNC(=N)N)NC(=O)[C@]1(C)CCCC=CCCCCCC[C@@](C)(NC(=O)[C@H](Cc2ccccc2)NC(=O)[C@H](CCCNC(=N)N)NC(=O)[C@H](CCC(=O)O)NC(=O)[C@H](CCC(N)=O)NC(=O)[C@H](CO)NC(=O)[C@H](CCCNC(=N)N)NC(C)=O)C(=O)N[C@@H](CC(=O)O)C(=O)N[C@@H](CC(C)C)C(=O)N[C@@H](Cc2c[nH]c3ccccc23)C(=O)N[C@@H](CCCCN)C(=O)N[C@@H](CCCNC(=N)N)C(=O)N[C@@H](CC(C)C)C(=O)N1)C(=O)N[C@@H](CCC(=O)O)C(=O)N[C@@H](CCC(N)=O)C(=O)N[C@@H](Cc1c[nH]c2ccccc12)C(=O)N[C@@H](Cc1ccccc1)C(=O)N[C@H](C(=O)N[C@@H](CCC(=O)O)C(=O)N[C@@H](CC(=O)O)C(N)=O)[C@@H](C)O [bivalent peptide] (Ac-RSQERF[R8]DLWKRL[S5]RR[PEG6]LSPDDIEQWFTED-NH2; staple 7-14; N-terminus assumed),effect on cell death after Nutlin treatment,SJSA cells,no significant effect
same,inhibition of p53-activated transcription at 500 nM,[1],inhibited
same,effect on VP16AD binding to Mediator,VP16-Mediator binding,did not reduce VP16AD binding to Mediator
same,increase in Mediator-bound VP16 in +peptide experiments (GST-VP16 normalized to MED15),VP16-Mediator binding; n=2,1.67 fold
